Experimental data published in article PMC6979384, “Characterization of the plant homeodomain (PHD) reader family for their histone tail interactions” (Epigenetics & Chromatin, 2020).

What was measured:
Experiment in all cases: Histone peptide microarray
Format in all cases: binding, human
Settings in all cases: total n = 4
[1] = test system: AIRE (PP)
In short: (§1)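 Using an optimized microarray protocol, purified GST-tagged PHD fingers were incubated at 0.5 μM on 293 histone peptides with single or multiple modifications, and array signal was recorded as the average of 4 replicates.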

[2] = test system: BAZ2B
In short: as §1

[3] = test system: BPTF (PB)
In short: as §1

[4] = test system: CHD4 (PPCC)
In short: as §1

[5] = test system: CHD5 (PCC)
In short: as §1

[6] = test system: CHD5 (PPCC)
In short: as §1

[7] = test system: DIDO1
In short: as §1

[8] = test system: DPF2 (PPC2W2)
In short: as §1

[9] = test system: ING1
In short: as §1

[10] = test system: ING2
In short: as §1

[11] = test system: ING3
In short: as §1

[12] = test system: ING4
In short: as §1

[13] = test system: ING5
In short: as §1

[14] = test system: KDM4C (TTP)
In short: as §1

[15] = test system: KDM5A (1)
In short: as §1

[16] = test system: KDM5A (3)
In short: as §1

[17] = test system: KDM5B (1)
In short: as §1

[18] = test system: KDM5B (3)
In short: as §1

[19] = test system: KDM7A
In short: as §1

[20] = test system: MLL5
In short: as §1

[21] = test system: MORC3 (CW)
In short: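 GST-tagged PHD finger readers were expressed, purified and applied at 0.5 μM to a microarray of 293 synthetic histone peptides carrying single or combinatorial PTMs, using an optimized protocol. Binding signals are averages with standard deviation from 4 replicates.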

[22] = test system: PHF13
In short: as §1

[23] = test system: PHF21A
In short: as §1

[24] = test system: PHF23
In short: as §1

[25] = test system: PHF2
In short: as §1

[26] = test system: PHF8
In short: as §1

[27] = test system: PHRF1 (RP)
In short: as §1

[28] = test system: RAG2
In short: as §1

[29] = test system: SP140L
In short: as §1

[30] = test system: TAF3
In short: as §1

[31] = test system: TRIM66 (PB)
In short: as §1

[32] = sheet "Array Heatmap", GST-tagged reader, histone peptide array

H3K4me3 + T6p: H3 1-20
Array Heatmap signal, AIRE (PP) [1, 32]: 0.4133
Array Heatmap signal, BAZ2B [2, 32]: 0.4415
Array Heatmap signal, BPTF (PB) [3, 32]: 0.3519
Array Heatmap signal, CHD4 (PPCC) [4, 32]: 0.5535
Array Heatmap signal, CHD5 (PCC) [5, 32]: 0.7037
Array Heatmap signal, CHD5 (PPCC) [6, 32]: 0.54
Array Heatmap signal, DIDO1 [7, 32]: 0.7585
Array Heatmap signal, DPF2 (PPC2W2) [8, 32]: 0.6833
Array Heatmap signal, ING1 [9, 32]: 0.5971
Array Heatmap signal, ING2 [10, 32]: 0.6187
Array Heatmap signal, ING3 [11, 32]: 0.4695
Array Heatmap signal, ING4 [12, 32]: 0.4567
Array Heatmap signal, ING5 [13, 32]: 0.3481
Array Heatmap signal, KDM4C (TTP) [14, 32]: 0.4688
Array Heatmap signal, KDM5A (1) [15, 32]: 0.452
Array Heatmap signal, KDM5A (3) [16, 32]: 0.4911
Array Heatmap signal, KDM5B (1) [17, 32]: 0.6162
Array Heatmap signal, KDM5B (3) [18, 32]: 0.4934
Array Heatmap signal, KDM7A [19, 32]: 0.3405
Array Heatmap signal, MLL5 [20, 32]: 0.5684
Array Heatmap signal, MORC3 (CW) [21, 32]: 0.3571
Array Heatmap signal, PHF13 [22, 32]: 0.5795
Array Heatmap signal, PHF21A [23, 32]: 0.4225
Array Heatmap signal, PHF23 [24, 32]: 0.5195
Array Heatmap signal, PHF2 [25, 32]: 0.6668
Array Heatmap signal, PHF8 [26, 32]: 0.3678
Array Heatmap signal, PHRF1 (RP) [27, 32]: 0.5056
Array Heatmap signal, RAG2 [28, 32]: 0.2443
Array Heatmap signal, SP140L [29, 32]: 0.3667
Array Heatmap signal, TAF3 [30, 32]: 0.309
Array Heatmap signal, TRIM66 (PB) [31, 32]: 0.549

H3K4me3R8me2a: H3 1-20
Array Heatmap value (peptide array signal) ([1]; AIRE (PP), sheet "Array Heatmap", each array performed twice): 0.3453
Array Heatmap value (peptide array signal) ([2]; BAZ2B, sheet "Array Heatmap", each array performed twice): 0.3334
Array Heatmap value (peptide array signal) ([3]; BPTF (PB), sheet "Array Heatmap", each array performed twice): 0.2864
Array Heatmap value (peptide array signal) ([4]; CHD4 (PPCC), sheet "Array Heatmap", each array performed twice): 0.4923
Array Heatmap value (peptide array signal) ([5]; CHD5 (PCC), sheet "Array Heatmap", each array performed twice): 0.6343
Array Heatmap value (peptide array signal) ([6]; CHD5 (PPCC), sheet "Array Heatmap", each array performed twice): 0.4208
Array Heatmap value (peptide array signal) ([7]; DIDO1, sheet "Array Heatmap", each array performed twice): 0.6362
Array Heatmap value (peptide array signal) ([8]; DPF2 (PPC2W2), sheet "Array Heatmap", each array performed twice): 0.6137
Array Heatmap value (peptide array signal) ([9]; ING1, sheet "Array Heatmap", each array performed twice): 0.5333
Array Heatmap value (peptide array signal) ([10]; ING2, sheet "Array Heatmap", each array performed twice): 0.6387
Array Heatmap value (peptide array signal) ([11]; ING3, sheet "Array Heatmap", each array performed twice): 0.4064
Array Heatmap value (peptide array signal) ([12]; ING4, sheet "Array Heatmap", each array performed twice): 0.3653
Array Heatmap value (peptide array signal) ([13]; ING5, sheet "Array Heatmap", each array performed twice): 0.2674
Array Heatmap value (peptide array signal) ([14]; KDM4C (TTP), sheet "Array Heatmap", each array performed twice): 0.39
Array Heatmap value (peptide array signal) ([15]; KDM5A (1), sheet "Array Heatmap", each array performed twice): 0.3616
Array Heatmap value (peptide array signal) ([16]; KDM5A (3), sheet "Array Heatmap", each array performed twice): 0.5067
Array Heatmap value (peptide array signal) ([17]; KDM5B (1), sheet "Array Heatmap", each array performed twice): 0.5478
Array Heatmap value (peptide array signal) ([18]; KDM5B (3), sheet "Array Heatmap", each array performed twice): 0.4037
Array Heatmap value (peptide array signal) ([19]; KDM7A, sheet "Array Heatmap", each array performed twice): 0.3319
Array Heatmap value (peptide array signal) ([20]; MLL5, sheet "Array Heatmap", each array performed twice): 0.5116
Array Heatmap value (peptide array signal) ([21]; MORC3 (CW), sheet "Array Heatmap", each array performed twice): 0.4123
Array Heatmap value (peptide array signal) ([22]; PHF13, sheet "Array Heatmap", each array performed twice): 0.5067
Array Heatmap value (peptide array signal) ([23]; PHF21A, sheet "Array Heatmap", each array performed twice): 0.4017
Array Heatmap value (peptide array signal) ([24]; PHF23, sheet "Array Heatmap", each array performed twice): 0.5109
Array Heatmap value (peptide array signal) ([25]; PHF2, sheet "Array Heatmap", each array performed twice): 0.5013
Array Heatmap value (peptide array signal) ([26]; PHF8, sheet "Array Heatmap", each array performed twice): 0.377
Array Heatmap value (peptide array signal) ([27]; PHRF1 (RP), sheet "Array Heatmap", each array performed twice): 0.4161
Array Heatmap value (peptide array signal) ([28]; RAG2, sheet "Array Heatmap", each array performed twice): 0.2561
Array Heatmap value (peptide array signal) ([29]; SP140L, sheet "Array Heatmap", each array performed twice): 0.3243
Array Heatmap value (peptide array signal) ([30]; TAF3, sheet "Array Heatmap", each array performed twice): 0.2483
Array Heatmap value (peptide array signal) ([31]; TRIM66 (PB), sheet "Array Heatmap", each array performed twice): 0.5377

H3K9ac + K14ac + K18ac: H3 1-20
Array Heatmap signal (histone peptide microarray) ([1]; GST-tagged AIRE (PP), sheet Array Heatmap, each array performed twice): 0.4138
Array Heatmap signal (histone peptide microarray) ([2]; GST-tagged BAZ2B, sheet Array Heatmap, each array performed twice): 0.6427
Array Heatmap signal (histone peptide microarray) ([3]; GST-tagged BPTF (PB = PHD + Bromodomain), sheet Array Heatmap, each array performed twice): 0.3483
Array Heatmap signal (histone peptide microarray) ([4]; GST-tagged CHD4 (PPCC = Dual PHD + Dual Chromodomain), sheet Array Heatmap, each array performed twice): 0.6424
Array Heatmap signal (histone peptide microarray) ([5]; GST-tagged CHD5 (PCC = PHD + Dual Chromodomain), sheet Array Heatmap, each array performed twice): 0.8362
Array Heatmap signal (histone peptide microarray) ([6]; GST-tagged CHD5 (PPCC = Dual PHD + Dual Chromodomain), sheet Array Heatmap, each array performed twice): 0.5238
Array Heatmap signal (histone peptide microarray) ([7]; GST-tagged DIDO1, sheet Array Heatmap, each array performed twice): 0.777
Array Heatmap signal (histone peptide microarray) ([8]; GST-tagged DPF2 (PPC2W2 = Dual PHD + C2W2-type Zn-finger), sheet Array Heatmap, each array performed twice): 0.8971
Array Heatmap signal (histone peptide microarray) ([9]; GST-tagged ING1, sheet Array Heatmap, each array performed twice): 0.5813
Array Heatmap signal (histone peptide microarray) ([10]; GST-tagged ING2, sheet Array Heatmap, each array performed twice): 0.62
Array Heatmap signal (histone peptide microarray) ([11]; GST-tagged ING3, sheet Array Heatmap, each array performed twice): 0.4687
Array Heatmap signal (histone peptide microarray) ([12]; GST-tagged ING4, sheet Array Heatmap, each array performed twice): 0.4438
Array Heatmap signal (histone peptide microarray) ([13]; GST-tagged ING5, sheet Array Heatmap, each array performed twice): 0.3256
Array Heatmap signal (histone peptide microarray) ([14]; GST-tagged KDM4C (TTP = Tandem Tudor domain + PHD), sheet Array Heatmap, each array performed twice): 0.4368
Array Heatmap signal (histone peptide microarray) ([15]; GST-tagged KDM5A (1), sheet Array Heatmap, each array performed twice): 0.4668
Array Heatmap signal (histone peptide microarray) ([16]; GST-tagged KDM5A (3), sheet Array Heatmap, each array performed twice): 0.5902
Array Heatmap signal (histone peptide microarray) ([17]; GST-tagged KDM5B (1), sheet Array Heatmap, each array performed twice): 0.5879
Array Heatmap signal (histone peptide microarray) ([18]; GST-tagged KDM5B (3), sheet Array Heatmap, each array performed twice): 0.4869
Array Heatmap signal (histone peptide microarray) ([19]; GST-tagged KDM7A, sheet Array Heatmap, each array performed twice): 0.3112
Array Heatmap signal (histone peptide microarray) ([20]; GST-tagged MLL5, sheet Array Heatmap, each array performed twice): 0.5367
Array Heatmap signal (histone peptide microarray) ([21]; GST-tagged MORC3 (CW = CW-type Zn-finger), sheet Array Heatmap, each array performed twice): 0.5442
Array Heatmap signal (histone peptide microarray) ([22]; GST-tagged PHF13, sheet Array Heatmap, each array performed twice): 0.5825
Array Heatmap signal (histone peptide microarray) ([23]; GST-tagged PHF21A, sheet Array Heatmap, each array performed twice): 0.4657
Array Heatmap signal (histone peptide microarray) ([24]; GST-tagged PHF23, sheet Array Heatmap, each array performed twice): 0.5614
Array Heatmap signal (histone peptide microarray) ([25]; GST-tagged PHF2, sheet Array Heatmap, each array performed twice): 0.5699
Array Heatmap signal (histone peptide microarray) ([26]; GST-tagged PHF8, sheet Array Heatmap, each array performed twice): 0.3679
Array Heatmap signal (histone peptide microarray) ([27]; GST-tagged PHRF1 (RP), sheet Array Heatmap, each array performed twice): 0.8654
Array Heatmap signal (histone peptide microarray) ([28]; GST-tagged RAG2, sheet Array Heatmap, each array performed twice): 0.2782
Array Heatmap signal (histone peptide microarray) ([29]; GST-tagged SP140L, sheet Array Heatmap, each array performed twice): 0.346
Array Heatmap signal (histone peptide microarray) ([30]; GST-tagged TAF3, sheet Array Heatmap, each array performed twice): 0.2816
Array Heatmap signal (histone peptide microarray) ([31]; GST-tagged TRIM66 (PB = PHD + Bromodomain), sheet Array Heatmap, each array performed twice): 0.7029
